For 17 compounds, IC50 and CC50 results are on record in patent US20230286969A1, “AROMATIC SPIRO RING AMIDE DERIVATIVES FOR THE TREATMENT AND PROPHYLAXIS OF HEPATITIS B VIRUS INFECTION” (Hoffmann-La Roche Inc., priority 2020, published 2023).

A word on the IC50: it is the concentration that gives 50% inhibition. As a reminder, the CC50 is the concentration that lowers cell viability or growth by half.

What all share (format): cell-based
One series deals with HBsAg. In words: PHH HBV natural infection assay, HBsAg (alphalisa). Put shortly:
(§1)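 Primary human hepatocytes infected with HBV at 200 GE/cell plus 4% PEG8000 for 24 h, then sandwich-cultured 72 h. Compounds were added in two refreshes 72 h apart. HBsAg and HBeAg in supernatant measured by AlphaLISA.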
For orientation: Alpha assays give light when donor and acceptor beads are brought close together.

Another series has as its system HBeAg. In words: PHH HBV natural infection assay, HBeAg (alphalisa). Put shortly: as §1
For series [1], the system named is primary human hepatocyte (PHH). In words: PHH natural infection assay, cytotoxicity (Cell Counting Kit-8). The conditions noted are these: HBV-infected primary human hepatocytes, CCK8, end of treatment. The gist of the method:
(§2)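 HBV-infected at 200 GE/cell with 4% PEG8000 for 24 h, then sandwich-cultured 72 h in 1% DMSO and 0.25 mg/mL matrix gel. Compound added twice at 72-h intervals; supernatant HBsAg and HBeAg read by AlphaLISA, HBV DNA by quantitative fluorescence PCR kit. Cytotoxicity by CCK-8.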
On the technique in general: Tetrazolium dyes change colour on reduction, which living cells bring about.

Experiment in series [2]: as above
The conditions noted are these: human, HBV-infected primary human hepatocytes, CCK8, end of treatment. The gist of the method: as §2

[3] abbreviates: read-out: HBsAg IC50, HBV-infected primary human hepatocytes, supernatant, compound medium refreshed two times with 72-hour interval.
Where [4] appears, read: read-out: HbeAg IC50, HBV-infected primary human hepatocytes, supernatant, compound medium refreshed two times with 72-hour interval.
[5] abbreviates: Hepatitis B virus, Hepatocyte, 72 h, read-out: HBsAg IC50, HBV-infected primary human hepatocytes, supernatant, compound medium refreshed two times with 72-hour interval.
Setting [6] is: Hepatitis B virus, Hepatocyte, 72 h, read-out: HbeAg IC50, HBV-infected primary human hepatocytes, supernatant, compound medium refreshed two times with 72-hour interval.

Read-outs that look alike come from different tables or passages of the source.

With `O=C(NC1CC2(C1)CC(c1nc3cc(Cl)ccc3o1)C2)c1ccc([S+]([O-])CC2CC2)o1` (single isomer, unassigned) [Example 19-d, N-[6-(5-chloro-1,3-benzoxazol-2-yl)spiro[3.3]heptan-2-yl]-5-(cyclopropylmethylsulfinyl)furan-2-carboxamide], the IC50 in the series on HBsAg (setting [3]) was determined as 2860 nM; with HBeAg (setting [4]), 2500 nM. For the same compound, in series [1], the CC50 was more than 10000 nM.
On the same counts, the results for `N=S(=O)(c1ccc(C(=O)NC2CC3(C2)CC(c2nc4cc(Cl)ccc4o2)C3)o1)C1CC1` (single isomer, unassigned) [Example 53-d, N-[6-(5-chloro-1,3-benzoxazol-2-yl)spiro[3.3]heptan-2-yl]-5-(cyclopropylsulfonimidoyl)furan-2-carboxamide] are 1120 nM, 1340 nM and 92800 nM.
On to `O=C(NC1CC2(C1)CC(c1nc3cc(Cl)ccc3o1)C2)c1ccc([S+]([O-])CC2CC2)o1` (single isomer, unassigned) [Example 19-b, N-[6-(5-chloro-1,3-benzoxazol-2-yl)spiro[3.3]heptan-2-yl]-5-(cyclopropylmethylsulfinyl)furan-2-carboxamide], for which the half-inhibitory concentration (IC50) is 71 nM in the series with HBsAg (setting [3]) and 53 nM in the series with HBeAg (setting [4]). The CC50 in series [1] is more than 10000 nM.
For `CS(=N)(=O)c1ccc(C(=O)NC2CC3(C2)CC(c2nc4cc(Cl)ccc4o2)C3)o1` (single isomer, unassigned) [Example 52-b, N-[6-(5-chloro-1,3-benzoxazol-2-yl)spiro[3.3]heptan-2-yl]-5-(methylsulfonimidoyl)furan-2-carboxamide], the values for the IC50 in the series on HBsAg (setting [3]) and in the series with HBeAg (setting [4]) were 939 nM and 898 nM, respectively. In series [1], this compound registered a CC50 of more than 100000 nM.
For `N=S(=O)(CC1CC1)c1ccc(C(=O)NC2CC3(C2)CC(c2nc4cc(Cl)ccc4o2)C3)o1` (single isomer, unassigned) [Example 54-c, N-[6-(5-chloro-1,3-benzoxazol-2-yl)spiro[3.3]heptan-2-yl]-5-(cyclopropylmethylsulfonimidoyl)furan-2-carboxamide] the same measures were 5840 nM, 4590 nM and more than 10000 nM.
For the compound `N=S(=O)(c1ccc(C(=O)NC2CC3(C2)CC(c2nc4cc(Cl)cnc4o2)C3)o1)C1CC1` (single isomer, unassigned) [Example 64-d, N-[6-(6-chlorooxazolo[5,4-b]pyridin-2-yl)spiro[3.3]heptan-2-yl]-5-(cyclopropylsulfonimidoyl)furan-2-carboxamide], the CC50 in series [1] is more than 10000 nM.
Turning to `N=S(=O)(c1ccc(C(=O)NC2CC3(C2)CC(c2nc4cc(Cl)ccc4o2)C3)o1)C1CC1` (single isomer, unassigned) [Example 53-b, N-[6-(5-chloro-1,3-benzoxazol-2-yl)spiro[3.3]heptan-2-yl]-5-(cyclopropylsulfonimidoyl)furan-2-carboxamide], the IC50 in the series on HBsAg (setting [3]) is 6830 nM; in the series with HBeAg (setting [4]), 4650 nM. Besides, the CC50 in series [1] was more than 10000 nM.
For `N=S(=O)(CC1CC1)c1ccc(C(=O)NC2CC3(C2)CC(c2nc4cc(Cl)ccc4o2)C3)o1` (single isomer, unassigned) [Example 54-d, N-[6-(5-chloro-1,3-benzoxazol-2-yl)spiro[3.3]heptan-2-yl]-5-(cyclopropylmethylsulfonimidoyl)furan-2-carboxamide] the same measures were 703 nM, 694 nM and more than 10000 nM.
Take `N=S(=O)(CC1CC1)c1ccc(C(=O)NC2CC3(C2)CC(c2nc4cc(Cl)ccc4o2)C3)o1` (single isomer, unassigned) [Example 54-b, N-[6-(5-chloro-1,3-benzoxazol-2-yl)spiro[3.3]heptan-2-yl]-5-(cyclopropylmethylsulfonimidoyl)furan-2-carboxamide]: the IC50 in the series on HBsAg (setting [3]) is 285 nM; in the series with HBeAg (setting [4]) it was 166 nM. The CC50 in series [1] was more than 100000 nM.
On the same counts, the results for `O=C(NC1CC2(C1)CC(c1nc3cc(Cl)ccc3o1)C2)c1ccc([S+]([O-])CC2CC2)o1` (single isomer, unassigned) [Example 19-c, N-[6-(5-chloro-1,3-benzoxazol-2-yl)spiro[3.3]heptan-2-yl]-5-(cyclopropylmethylsulfinyl)furan-2-carboxamide] are 2420 nM, 1950 nM and more than 10000 nM.
On the same counts, the results for `N=S(=O)(c1ccc(C(=O)NC2CC3(C2)CC(c2nc4cc(Cl)cnc4o2)C3)o1)C1CC1` (single isomer, unassigned) [Example 64-b, N-[6-(6-chlorooxazolo[5,4-b]pyridin-2-yl)spiro[3.3]heptan-2-yl]-5-(cyclopropylsulfonimidoyl)furan-2-carboxamide] are 9460 nM, 9130 nM and more than 10000 nM.
As to `O=C(N[C@H]1CC2(C1)C[C@H](c1nc3cc(Cl)ccc3o1)C2)c1ccc(S(=O)(=O)NC(=O)C2CC2)o1` (single isomer, unassigned) [Example 71, (Sa)—N-[6-(5-chloro-1,3-benzoxazol-2-yl)spiro[3.3]heptan-2-yl]-5-(cyclopropanecarbonylsulfamoyl)furan-2-carboxamide, or (Ra)—N-[6-(5-chloro-1,3-benzoxazol-2-yl)spiro[3.3]heptan-2-yl]-5-(cyclopropanecarbonylsulfamoyl)furan-2-carboxamide], the IC50 with HBsAg (setting [5]) worked out at 3660 nM; in the series with HBeAg (setting [6]), 3280 nM. The compound also had a CC50 at 144 h in series [2] of more than 100000 nM.
For `O=C(NC1CC2(C1)CC(c1nc3cc(Cl)ccc3o1)C2)c1ccc(CS(=O)(=O)C2CC2)o1` (stereo not shown) [Example 31, N-[6-(5-chloro-1,3-benzoxazol-2-yl)spiro[3.3]heptan-2-yl]-5-(cyclopropylsulfonylmethyl)furan-2-carboxamide] the same measures were 7560 nM, 6980 nM and more than 100000 nM.
On the same counts, the results for `O=C(NC1CC2(C1)CC(c1nc3cc(Cl)ccc3o1)C2)c1ccc(S(=O)(=O)CC2CCC2)o1` (stereo not shown) [Example 23, N-[6-(5-chloro-1,3-benzoxazol-2-yl)spiro[3.3]heptan-2-yl]-5-(cyclobutylmethylsulfonyl)furan-2-carboxamide] are 321 nM, 883 nM and more than 100000 nM.
For `O=C(NC1CC2(C1)CC(c1nc3cc(Cl)ccc3o1)C2)c1ccc([S+]([O-])C(F)(F)F)o1` (stereo not shown) [Example 42, N-[6-(5-chloro-1,3-benzoxazol-2-yl)spiro[3.3]heptan-2-yl]-5-(trifluoromethylsulfinyl)furan-2-carboxamide] the same measures were 1520 nM, 1410 nM and 96200 nM.
Take `O=C(NC1CC2(C1)CC(c1nc3cc(Cl)ccc3o1)C2)c1ccc(S(=O)(=O)NC(=O)C2COC2)o1` (stereo not shown) [Example 86, N-[6-(5-chloro-1,3-benzoxazol-2-yl)spiro[3.3]heptan-2-yl]-5-(oxetane-3-carbonylsulfamoyl)furan-2-carboxamide]: the IC50 with HBsAg (setting [5]) came to 2990 nM; in the series on HBeAg (setting [6]), 2190 nM. The compound also displayed a CC50 at 144 h in series [2] of more than 10000 nM.
Turning to `NS(=O)(=O)c1ccc(C(=O)NC2CC3(C2)CC(c2nc4cc(Cl)ccc4o2)C3)o1` (stereo not shown) [Example 29, N-[6-(5-chloro-1,3-benzoxazol-2-yl)spiro[3.3]heptan-2-yl]-5-sulfamoyl-furan-2-carboxamide], the IC50 with HBsAg (setting [5]) was 534 nM; in the series on HBeAg (setting [6]), 509 nM. Further, it took 94200 nM to reach half-maximal cytotoxicity in series [2] (CC50 at 144 h).
